Measurements as given in patent US9662319B2 (Mayo Foundation for Medical Education and Research, priority 2011, dated 2017).

Assays:
human MM cells lines = assay: MTT assay, baseline cytotoxicity on a panel of human MM cell lines; type: cell-based; details: 11 tested MM cell lines, 1.6 μM to 50 μM, 72 hours, in vitro
Method: (§1) The lentiviruses expressing NT or CRBN shRNAs were subcloned into a GFP containing construct and used to infect various myeloma cell lines as described elsewhere (Zhu et al., Blood, 117(14):3847-3857 (2011); Epublished Feb. 2, 2011). After a 48-hour infection period, efficiency was measured at 72 hours and 6 days post infection by FACScan analysis of GFP expression. Cell viability was measured by 3-(4,5-dimethylthiazol)-2,5-diphenyl tetrazolium (MTT) dye absorbance according to the manufacturer's instructions (Boehringer Mannheim, Mannheim, Germany). Cells were also harvested at 72 hours post infection for real-time PCR analysis of CRBN levels in control and CRBN shRNA expressing cells. At three weeks post infection, GFP-positive cells were sorted and expanded. Real-time PCR was performed to measure CRBN levels in sorted cells.
In some experiments, cells were incubated with various doses of lenalidomide, dexamethasone, melphalan, or bortezomib. Plates were incubated for 72 hours to six days. Cell viability was determined using an MTT assay. Each experimental condition was performed in triplicate and repeated at least once.
A MTT assay was performed on a panel of genetically heterogeneous human MM cells lines in vitro (FIG. 1). […] The same dose of thalidomide, however, had no effect on MM cell growth.

[1] = test system: CRBN depleted myeloma cell lines; assay: MTT cell viability of CRBN shRNA knock-down myeloma cell lines versus NT control cells in presence of anti-myeloma drugs; type: cell-based, human; details: sorted GFP positive myeloma cell lines with CRBN knock-down
Method: as §1
Plates were incubated for 72 hours to six days. Cell viability was determined using an MTT assay. Each experimental condition was performed in triplicate and repeated at least once.
Proliferation of those CRBN depleted but surviving MM cells were then tested in the absence or presence of different anti-myeloma drugs.

| SMILES | growth of MM cell lines (MTT) (human MM cells lines) | sensitivity of CRBN knock-down cells compared with NT control cells [1] |
| --- | --- | --- |
| O=C1CCC(N2C(=O)c3ccccc3C2=O)C(=O)N1 (stereo not shown) [thalidomide] | no effect | – |
| Nc1cccc2c1CN(C1CCC(=O)NC1=O)C2=O (stereo not shown) [Lenalidomide] | inhibited growth of 8 of 11 tested MM cell lines | – |
| Nc1cccc2c1C(=O)N(C1CCC(=O)NC1=O)C2=O (stereo not shown) [pomalidomide] | – | resistance |
| CC(C)C[C@H](NC(=O)[C@H](Cc1ccccc1)NC(=O)c1cnccn1)B(O)O [Bortezomib] | – | more sensitive |
